The text below walks through data of patent US20110207655A1, “CYCLIC DEPSIPEPTIDE COMPOUND AND USE THEREOF” (Astellas Pharma Inc., priority 2008, published 2011).

SMILES strings stand for the structures. Starred links: 1 amine or outer side, 2 acyl side, 3 side chain; linkers in the order of their positions; H or OH if unused. Positions of bridges follow the written chain, without caps; N, C: chain ends. Non-standard residues stand in square brackets, D forms with d. Residues, ends and D or L forms follow the SMILES beside them. Leu(3R-O(AcLeu(3R-OH))) = CC(=O)N[C@H](C(=O)O[C@H](C(C)C)[C@H](N)C(=O)O)[C@H](O)C(C)C; X1 = CO[C@H](C)C(C(=O)[*:2])N(C)[*:1]; dPhLac = O=C(O)[C@H](O)Cc1ccccc1; NMeA = CN[C@@H](C)C(=O)O; NMeDha = C=C(NC)C(=O)O

Data set [1] deals with Gq/11. In words: Inhibitory action on Gq/11: LTD4-induced cellular Ca2+ change in CHO cells stably expressing CysLTR2 (FLIPR). In kind it is cell-based. Particulars: read-out: Gq/11 inhibitory activities (IC50 values), 10 nM LTD4, maximum Fluo-4 fluorescence intensity. The method, then: The test was carried out according to the method of Non-Patent Citation 3, using a leukotriene receptor CysLTR2 (cysteinyl leukotriene receptor 2), which is known to activate Gq/11. CHO cells stably expressing CysLTR2 were seeded on a 96-well black/clear bottom plate (manufactured by Becton, Dickinson and Company) at 20,000 cells per well, and after 24 hours of seeding, the medium was discarded. Then, Hanks BSS (GIBCO Inc.) including 2 μM Fluo-4, AM (manufactured by Molecular Probe Co.), 0.004% pluronic acid, 1% FBS, 20 mM HEPES, and 2.5 mM probenecid was added thereto at 100 μL per well, followed by incubation at 37° C. for 1 hour. After incubation, the resultant was washed four times with Hanks BSS including 20 mM HEPES, and Hanks BSS including 20 mm HEPES per well was added thereto 100 μL per well. In addition, 50 μL of a test compound that had been diluted with Hanks BSS including 20 mM HEPES to a final concentration from 1×10^−10 M to 1×10^−5 M was added thereto, followed by being left to stand at room temperature for 30 minutes. The change of cellular Ca^2+ concentration after addition of leukotriene D4 (LTD4, manufactured by Cayman Co.), which is a CysLTR2 ligand, was measured over time using an FLIPR (Molecular Device Corp.). 50 μL it of leukotriene D4 that had been diluted with Hanks BSS including 20 mM HEPES to a final concentration of 10 nM at 10 seconds after the initiation of measurement was added thereto, fluorescence intensities were measured every second for 50 seconds and every sixth second for 2 minutes, and a maximum fluorescence intensity during a measurement time of 3 minutes was observed. By plotting the concentrations and the fluorescence intensities of the test compounds, the IC50 values were calculated, which were taken as Gq/11 inhibitory activities.

Data set [2] concerns methacholine-induced airway contraction. In words: Inhibitory action of intratracheal administration on the methacholine-induced airway contraction. In kind it is in vivo, SD male rats. Particulars: rats; for airway contraction inhibitory rate: 1 hour before methacholine 30 μg/kg i.v., vs saline group. The method, then:
SD male rats (Charles River Laboratories Japan, Inc.) were used in experiments. Urethane (1.2 g/kg) was administered intraperitoneally to the rats for anesthesia. Using a metal canula for intratracheal administration, test compounds (0.3, 1, and 3 μg/kg) or physiological saline was administered intratracheally (3 or 4 animals) at a volume of 0.5 mL/kg. Cannulation for intravenous administration was carried out in the external jugular vein of the rats. A tracheostomy cannula was inserted through an incision in the trachea and mechanical ventilation (10 mL/kg, 90 times/min) was carried out using a Breathing Analysis Computer System (flexiVent, SCIREQ Inc.). The mechanical ventilator circuit was connected with a pressure transducer (TP-400T, Nihon Kohden Corporation) and the change in airway pressure was measured. The airway pressure signal was amplified with a strain pressure amplifier (AP-601G, Nihon Kohden Corporation) and recorded on chart paper by a thermal pen recorder (WT-685G, Nihon Kohden Corporation, or LINEARCORDER F WR3701, Graphtec). The body temperature of the rats was maintained at 37° C. using a body temperature-maintaining device (BWT-100, Bio Research
Center). At 1 hour after intratracheal administration of the test compound, a solution of acetyl-β-methacholine chloride in physiological saline (30 μg/kg, acetylcholine β-methacholine chloride=manufactured by SIGMA Co.) was administered intravenously to induce the airway contraction response. The airway contraction inhibitory rate of the test compound was calculated by comparing the airway pressure increase rate (%) with one obtained by intratracheal administration of physiological saline, and ED50 values were determined.

Data set [3] relates to Gq and G11. As to conditions: Non-Patent Citation 3; cited from earlier work.
Data set [4] relates to blood pressure. As to conditions: intravenous 30 μg/kg, Non-Patent Citation 4; cited from earlier work.
For data set [5], the system named is carotid artery pressure. Put plainly: Action on the carotid pressure by intratracheal administration. As to conditions: rats. In kind it is in vivo, SD male rats. The protocol:
SD male rats (Charles River Laboratories Japan, Inc.) were used in experiments. Urethane (1.2 g/kg) was administered intraperitoneally to the rats for anesthesia. Cannulation for […] was carried out in the carotid artery and a pressure transducer (TP-400T, Nihon Kohden Corporation) was connected. The cannula for measuring blood pressure and a pressure transducer were filled with 5% heparin physiological saline. The pressure signal was amplified with a strain pressure amplifier (AP-601G, Nihon Kohden Corporation) and recorded on chart paper by a thermal pen recorder (WT-685G, Nihon Kohden Corporation). The body temperature of the rats was maintained at 37° C. using a body temperature-maintaining device (BWT-100, Bio Research Center). The trachea was exposed, and using needles (27 G), the test compounds (30 or 100 μg/kg) at a volume of 0.5 mL/kg or physiological saline was administered by direct intratracheal injection. For the group administered with 30 μg/kg, 5 animals were used, for the group administered with 100 μg/kg, 1 animal was used, and for the group administered with physiological saline, 3 animals were used. For 30 minutes after intratracheal administration, a mean blood pressure was measured.

For data set [6], the system named is muscarinic receptors (M1). Particulars: in-vitro tests, Non-Patent Citation 3; cited from earlier work.
For data set [7], the system named is ADP receptors (P2Y1, P2Y2). As to conditions: in-vitro tests, Non-Patent Citation 3; cited from earlier work.
The subject of data set [8] is human platelet aggregation caused by ADP. As to conditions: Patent Citation 1, Non-Patent Citation 1; cited from earlier work.
[9] abbreviates: intratracheal 100 μg/kg, 1 animal.

By ED50 is commonly meant the midpoint of the dose-response relation.

As for `C=C1C(=O)N[C@@H](C)C(=O)N(C)[C@@H](C)C(=O)N[C@@H]([C@H](OC(=O)[C@@H](NC(C)=O)[C@H](O)C(C)C)C(C)C)C(=O)N(C)C([C@@H](C)OC)C(=O)O[C@H](C)[C@H](NC(C)=O)C(=O)O[C@H](Cc2ccccc2)C(=O)N1C` (stereo partly drawn) [Ref 1] (Ac-T[dPhLac][NMeDha]A[NMeA][Leu(3R-O(AcLeu(3R-OH)))][X1]; ester 1-C), the IC50 in data set [1] amounted to 0.066 µM. In addition, in data set [2] (Rattus norvegicus, intratracheal, calculated from three points, read-out: ED50 value of inhibition of methacholine-induced airway contraction), the ED50 was 0.73 µg/kg. The “airway contraction inhibitory rate” value is listed as 32% in data set [2] (intratracheal 0.3 μg/kg), 45% in data set [2] (intratracheal 1 μg/kg) and 98% in data set [2] (intratracheal 3 μg/kg). Besides, in data set [3], the “inhibition of Gq and G11” value is “strongly inhibits”. Also, the hypotensive action result in data set [4] is given as “hypotensive action”. In addition, in data set [5] (intratracheal), the “amount having no action on the carotid artery pressure” value was “at least 30 μg/kg”. The “Reduction in blood pressure After 10 min” value is 7±5.2 mmHg in data set [5] (intratracheal 30 μg/kg) and 65 mmHg in data set [5] (setting [9]). Further, the “Reduction in blood pressure Max in 30 min” value in data set [5] (intratracheal 30 μg/kg) is 22±3.3 mmHg; in data set [5] (setting [9]), 95 mmHg. Further, the “reduction in blood pressure compared with physiological saline group” value in data set [5] (intratracheal 30 μg/kg) is on record as “no significant difference”. The “reduction in blood pressure (in words)” value in data set [5] (intratracheal 100 μg/kg) was “remarkable reduction in blood pressure”. Further, the “gap between maximum amount having no action on carotid artery pressure and ED50 of inhibitory action on airway contraction” value in data set [5] (intratracheal, 30 μg/kg vs 0.73 μg/kg) is reported as “at least 40 times”. Also, in data set [6], the “reactions of muscarinic receptors (M1)” value is “inhibits”. Moreover, the “reactions of ADP receptors (P2Y1, P2Y2)” value in data set [7] was “inhibits”. In addition, the “human platelet aggregation caused by ADP” value in data set [8] is on record as “inhibits”.
